Data on four compounds can be found in PMC11477298, “Small Molecules Inducing Autophagic Degradation of Expanded Polyglutamine Protein through Interaction with Both Mutant ATXN3 and LC3” (International Journal of Molecular Sciences, 2024).

Common to all, as to assay type: cell-based, human
Data set [1] in a line: MTT compound cytotoxicity assay. Conditions: human, ATXN3-Q75-GFP SH-SY5Y cells, 0.1–100 μM compound, viability analyzed the next day, n = 3. On the procedure:
For the compound cytotoxicity assay, ATXN3-Q75-GFP SY5Y cells (2 × 10^4) were plated into 96-well dishes, grown for 20 h, and treated with 0.1–100 μM test compounds. After 1 day, 3-(4,5-dimethylthiazol-2-yl)-2,5-diphenyltetrazolium bromide (MTT, 5 mg/mL) (Sigma-Aldrich, St. Louis, MO, USA) was added to the cells and incubated for 3 h at 37 °C. Lysis buffer (10% Triton X-100, 0.1 N HCl, 18% isopropanol) was then added to dissolve the insoluble formazan crystals. The absorbance of the purple-colored solution was measured at optical density (OD) 570 nm by using a FLx800 fluorescence microplate spectrophotometer (Bio-Tek, Winooski, VT, USA). The half-maximal inhibitory concentration (IC50) was calculated through the construction of a dose–response curve.
In general terms: Tetrazolium dyes change colour on reduction, which living cells bring about.

Data set [2] has as its system ATXN3-Q75-GFP SH-SY5Y cells. Nature of the data set: Confocal microscopy of LC3 puncta, ATXN3-Q75 aggregates and P62 colocalization. The following applies: range over trehalose and the four compounds; for Colocalization coefficient of ATXN3-Q75-GFP with LC3 puncta: untreated 0.014; for Colocalization coefficient of LC3 with P62: untreated 0.21; for LC3 puncta per cell: untreated induced 2.7. As for the experimental part: ATXN3-Q75-GFP SY5Y cells were seeded onto 12-well plates (1 × 10^5/well) containing poly-L-lysine-coated coverslip on day 1; treated with retinoic acid, test compounds, and doxycycline on day 2; and fixed, permeabilized, and blocked on day 8, as described. The primary anti-LC3 antibody (1:1000; Cell Signaling #83506, Danvers, MA, USA) or anti-P62 antibody (1:1500; Cell Signaling #5114) was used to stain cells at 4 °C overnight. After washing with PBS containing 0.1% Tween 20 (PBST), cells were incubated for 2 h at room temperature with Cy5-conjugated (1:1000, Jackson ImmunoResearch 715-175-150) or Alexa Fluor 555-conjugated (1:500; Invitrogen #A-31572) secondary antibody, and washed three times with PBST. Nuclei were detected using DAPI (0.1 μg/mL; Sigma-Aldrich). The stained cells on coverslips were mounted onto microscope slides with Vectashield antifade mounting medium (Vector Laboratories, Newark, CA, USA) and examined using a Zeiss LSM880 confocal microscope (Carl Zeiss AG, Oberkochen, Baden-Württemberg, Germany). Cell images were acquired at excitation/emission wavelengths of 649/666 nm, 482/536 nm, 555/582 nm, and 385/461 nm for stained LC3 puncta, aggregates, P62, and nuclei, respectively. For colocalization, 300 cells from three independent experiments were analyzed and quantified for the proportion of pixels that LC3 (red) colocalized with P62 (yellow) using Mander’s overlap coefficient (MOC) in ZEN software version 2.1 (Carl Zeiss AG).

Data set [3] relates to ATXN3-Q75-GFP SH-SY5Y cells. The experiment in a line: Western blot of LC3-II:LC3-I ratio. The following applies: uninduced = 100%, untreated induced 76%, range over trehalose and the four compounds. As for the experimental part:
For the immunoblotting analysis, ATXN3-Q75-GFP SH-SY5Y cells were seeded in 6-well plates (3 × 10^5/well) and treated with retinoic acid, test compounds, and doxycycline, as described. On day 8, cells were collected and lysed in buffer (50 mM Tris-HCl pH 8.0, 150 mM NaCl, 2 mM EDTA pH 8.0, 0.1% SDS, 0.5% sodium deoxycholate, 1% NP-40) containing the protease inhibitor cocktail (Sigma-Aldrich). After sonication, the lysates were centrifuged (12,000× g for 10 min at 4 °C) and protein concentrations determined (Bradford protein assay; Bio-Rad, Hercules, CA, USA). Aliquots of protein (20 µg) were separated by electrophoresis using 12% SDS-polyacrylamide gel followed by transfer to a polyvinylidene fluoride membrane. After being blocked with 5% skim milk at 4 °C overnight, the membrane was stained with LC3 (1:1000; Medical & Biological Laboratories Co. #PM036, Tokyo, Japan) or GAPDH (glyceraldehyde 3-phosphate dehydrogenase) (1:1000, MDBio #30000002, Taipei, Taiwan) primary antibody at 4 °C overnight. The immune complexes were detected using HRP-conjugated goat anti-rabbit IgG antibody and chemiluminescent substrate, as described.
On the technique in general: Immunoblotting shows a protein as a band on a membrane.

For data set [4], the system named is ATXN3-Q75-GFP SH-SY5Y cells. The experiment in a line: High-content neurite outgrowth assay. Conditions: for Neurite branch: untreated 1.16; for Neurite length: untreated 23.2 µm. As for the experimental part:
ATXN3-Q75-GFP SH-SY5Y cells (5 × 10^4/well) were plated onto 24-well plates, with retinoic acid addition (10 µM; Sigma-Aldrich) on day 1 to initiate neuronal differentiation. On day 2, the cells were pretreated with disaccharide trehalose (10 mM, as a positive control) or the studied compounds (10 μM) for 8 h, followed by the addition of doxycycline (5 μg/mL, Sigma-Aldrich) to induce ATXN3-Q75-GFP expression. The cells were kept in the medium containing retinoic acid, the test compound, and doxycycline for 6 days, with the culture medium changed on day 5. ATXN3-Q75 aggregation and neurite outgrowth assays were performed on day 8 using a high-content imaging system (ImageXpress Micro Confocal; Molecular Devices).
For the aggregation assay, cells were stained with Hoechst 33342 (0.1 µg/mL; Sigma-Aldrich) at 37 °C for 30 min. Images of the cells were automatically obtained at excitation/emission wavelengths of 482/536 nm (FITC [fluorescein isothiocyanate] filter) for enhanced GFP and 377/447 nm (DAPI [4′,6-diamidino-2-phenylindole] filter) for nucleus counting. ATXN3-Q75 aggregation was determined by Transfluor technology based on GFP fluorescence intensity. For the neurite outgrowth assay, cells were fixed with 4% paraformaldehyde for 30 min, permeabilized with 0.1% Triton X-100 for 10 min, and blocked by non-specific binding with 3% bovine serum albumin for 20 min. The primary TUBB3 (neuronal class III β-tubulin) antibody (1:1000; BioLegend #802001, San Diego, CA, USA) was used to stain cells at 4 °C overnight, followed by Alexa Fluor 555-donkey anti-rabbit IgG secondary antibody (1:1000; Invitrogen #A-31572) staining for 2 h at room temperature. Nuclei were detected using DAPI (0.1 μg/mL; Sigma-Aldrich). Cell images were obtained at excitation/emission wavelengths of 531/593 nm (TRITC [tetramethylrhodamine] filter) for stained neurites and 377/447 nm (DAPI filter) for nuclei. To quantify neurite outgrowth, microscopic images were segmented with multi-colored masks to assign each outgrowth to a cell body for quantification. Neurite total length (μm) and numbers of process (primary neurites originating from neuronal cell body) and branch (secondary neurites extended from primary neurites) were analyzed (Neurite Outgrowth Application Module; Molecular Devices). In general, […] in each biological replicate were analyzed.

For data set [5], the system named is ATXN3-Q75-GFP SH-SY5Y cells. Nature of the data set: Filter trap assay of cell lysates. The following applies: trehalose 10 mM; without compound = 100%. As for the experimental part: The filter retardation assay was performed to quantify ATXN3-Q75 protein aggregates. The purified Trx-His-ATXN3-Q75 protein was incubated with test compounds (100 µM) at 37 °C for 2 days as described. In addition, proteins from compound-treated ATXN3-Q75-GFP SH-SY5Y cells were prepared (as described in Western blotting). Proteins (0.5 µg of biochemical reaction or 20 µg of cellular lysates) were diluted in 2% SDS in phosphate-buffered saline (PBS) and filtered through a cellulose acetate membrane (0.45-μm pore size; Sterlitech, Auburn, WA, USA) pre-equilibrated in 2% SDS in PBS on a dot-blot filtration apparatus (Bio-Rad Laboratories, Hercules, CA, USA). After washing with 2% SDS buffer, the membrane was blocked in PBS containing 5% skim milk at 4 °C overnight. Insoluble ATXN3-Q75 was probed with an anti-His tag (1:2000; OriGene #TA100013, Rockville, MD, USA) or anti-ATXN3 (1:1000; Invitrogen #PA5-26251) antibody. The immune complex on the filter was detected using horseradish peroxidase (HRP)-conjugated goat anti-mouse (#GTX213111-01) or goat anti-rabbit (#GTX213110-01) immunoglobulin G (IgG) antibody (1:5000; GeneTex, Irvine, CA, USA) and a chemiluminescent HRP substrate (Millipore, Billerica, MA, USA). The chemiluminescent signals were captured with an ImageQuant LAS 4000 (GE Healthcare, Chicago, IL, USA) and quantified (Multi Gauge V3.0 software, Fujifilm, Tokyo, Japan). […]

The subject of data set [6] is ATXN3-Q75-GFP SH-SY5Y cells. The experiment in a line: High-content analysis of ATXN3-Q75 aggregation in cells. The following applies: trehalose 10 mM; untreated induced cells 8.2%; day 8. On the procedure:
ATXN3-Q75-GFP SH-SY5Y cells (5 × 10^4/well) were plated onto 24-well plates, with retinoic acid addition (10 µM; Sigma-Aldrich) on day 1 to initiate neuronal differentiation. On day 2, the cells were pretreated with disaccharide trehalose (10 mM, as a positive control) or the studied compounds (10 μM) for 8 h, followed by the addition of doxycycline (5 μg/mL, Sigma-Aldrich) to induce ATXN3-Q75-GFP expression. The cells were kept in the medium containing retinoic acid, the test compound, and doxycycline for 6 days, with the culture medium changed on day 5. […]
For the aggregation assay, cells were stained with Hoechst 33342 (0.1 µg/mL; Sigma-Aldrich) at 37 °C for 30 min. […] ATXN3-Q75 aggregation was determined by Transfluor technology based on GFP fluorescence intensity. […] Nuclei were detected using DAPI (0.1 μg/mL; Sigma-Aldrich). […] To quantify neurite outgrowth, microscopic images were segmented with multi-colored masks to assign each outgrowth to a cell body for quantification. Neurite total length (μm) and numbers of process (primary neurites originating from neuronal cell body) and branch (secondary neurites extended from primary neurites) were analyzed (Neurite Outgrowth Application Module; Molecular Devices). In general, 104 cells in each biological replicate were analyzed.

[7] abbreviates: compound 10 µM, range over the four named compounds.

The IC50 is the concentration that gives 50% inhibition. High values mean lower potency, low ones higher potency.

For `O=C(/C=C/c1ccco1)c1c(O)c2ccccc2oc1=O` [LM-022], in data set [1], the IC50 at 1 day was found to be 102 µM.

In the case of `CC(=O)/C(=C\c1ccccc1[N+](=O)[O-])Cc1c(-c2ccccc2)[nH]c2ccccc12` [NC009-3], the IC50 at 1 day in data set [1] was over 100 µM.

`CCc1cccc2c(C/C(=C/c3ccccc3[N+](=O)[O-])C(C)=O)c[nH]c12` [NC009-6]: in data set [2] (compound 10 μM), the “Colocalization coefficient of ATXN3-Q75-GFP with LC3 puncta” value is reported as 0.025–0.030, the “Colocalization coefficient of LC3 with P62” value was 0.26–0.29 and the “LC3 puncta per cell” value was 4.6–6.7. For the same compound, the “Relative LC3-II:LC3-I ratio” value in data set [3] (compound 10 μM) is on record as 102–124%. In addition, the IC50 at 1 day in data set [1] is 176 µM. Further, in data set [4] (setting [7]), the Neurite branch is on record as 1.34–1.37 and the Neurite length is reported as 26.1–26.9 µm. Besides, the Neurite process in data set [4] (compound 10 µM, untreated 2.41, range over the four named compounds) is 2.55–2.57.

For the compound `OC[C@H]1O[C@H](O[C@H]2O[C@H](CO)[C@@H](O)[C@H](O)[C@H]2O)[C@H](O)[C@@H](O)[C@@H]1O` [trehalose, reference compound], in data set [2] (trehalose 10 mM), the “Colocalization coefficient of ATXN3-Q75-GFP with LC3 puncta” value is 0.025–0.030, the “Colocalization coefficient of LC3 with P62” value was 0.26–0.29 and the “LC3 puncta per cell” value is reported as 4.6–6.7. Further, the “Relative LC3-II:LC3-I ratio” value in data set [3] (trehalose 10 mM) is 102–124%. The “Insoluble aggregated proteins in cell lysates (filter trap)” value in data set [5] is recorded as 45%. Also, the “Percentage of aggregated cells” value in data set [6] worked out at 7.4%. Moreover, in data set [4] (trehalose 10 mM), the Neurite branch came out at 1.31 and the Neurite length is given as 25.5 µm.
